Assay results from patent US20250145628A1, “PYRAZOLOPYRIMIDINES, COMPOSITIONS COMPRISING THEM AND USES THEREOF” (Novo Nordisk A/S, priority 2022, published 2025).

Assays:
human CB1 receptor [1] = target: T1, human CB1 receptor (Homo sapiens, UniProt P21554); assay: bioSensAll β-arrestin plasma membrane translocation BRET biosensor (+GRK2) assay (antagonism of CP-55,940); assay type: cell-based; conditions: HEK293 cells transfected with hCB1 and β-arrestin PM translocation biosensor (+GRK2), EC75 of CP-55,940 (100 nM), overnight incubation, read-out: CB1 wt βarr2 IC50
T1 construct: expressed in transfected cells; host or cells: HEK293
T1 sequence (P21554 whole entry): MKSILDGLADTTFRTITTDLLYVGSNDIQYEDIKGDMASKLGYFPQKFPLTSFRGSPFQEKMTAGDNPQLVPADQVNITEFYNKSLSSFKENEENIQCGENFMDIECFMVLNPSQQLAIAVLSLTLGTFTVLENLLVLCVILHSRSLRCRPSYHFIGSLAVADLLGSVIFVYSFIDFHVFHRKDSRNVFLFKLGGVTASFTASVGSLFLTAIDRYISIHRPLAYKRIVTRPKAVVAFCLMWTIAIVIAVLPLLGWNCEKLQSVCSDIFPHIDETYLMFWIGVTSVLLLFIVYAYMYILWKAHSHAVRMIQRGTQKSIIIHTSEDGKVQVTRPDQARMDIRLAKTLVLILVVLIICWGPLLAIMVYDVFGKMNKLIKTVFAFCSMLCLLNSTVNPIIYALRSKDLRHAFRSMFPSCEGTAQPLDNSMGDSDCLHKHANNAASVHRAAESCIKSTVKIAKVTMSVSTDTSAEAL
Protocol: (§1) Using polyethylenimine (PEI) transfection agent, HEK293 cells were transfected in suspension with the human CB1 or CB1b receptor and one of the following bioSensAll® assays: GAPL-Gi2, or β-arrestin plasma membrane (PM) translocation biosensor (+GRK2). Cells were directly seeded in 96-well plates immediately following transfection.
(§2) Cells were incubated with coelenterazine (luciferase substrate) and different test compounds prior to the measurement of BRET signals.
ii) The multimolecular β-arrestin membrane recruitment biosensors allow for real-time spatio-temporal monitoring of β-arrestin 1 and β-arrestin 2 following GPCR activation. Specifically, these β-arrestin sensors were designed to detect the recruitment of proteins to the plasma membrane (β-arrestin PM) with localization to compartment resulting in an increased BRET signal.
(§3) HEK293 cells were maintained in Dulbecco's Modified Eagle Medium (DMEM) (Wisent; cat #319-030-CL: without sodium pyruvate, with 4.5 g/L glucose, without L-glutamine) supplemented with 1% penicillin-streptomycin (Wisent; cat #450-201-EL) and 2 or 10% fetal bovine serum (Wisent cat #090150).
(§4) HEK293 cells were co-transfected with hCB1 or hCB1b and one of the above-listed bioSensAll® assays. For each transfection condition: • the total amount of transfected DNA was kept constant at 1 μg per mL of cell culture to be transfected; whenever necessary, salmon sperm DNA (Invitrogen, cat #15632011) was used as ‘carrier’ DNA to supplement plasmid DNA (i.e., biosensor and receptor); • the PEI (polyethylenimine 25 kDa linear, PolyScience, cat #23966) to DNA ratio (ug:ug) was fixed at 3:1.
(§5) Transfections were carried out as follows: • DNA and PEI were first diluted separately in 150 mM NaCl. The volume of the diluent in each tube corresponds to 5% of the cell culture volume to be transfected. • Once DNA and PEI were diluted, the PEI-containing solution was added to the DNA solution and the DNA/PEI mixture immediately vortexed for 5 seconds. • The DNA/PEI mixture was incubated for at least 20 minutes at room temperature to allow for the formation of DNA/PEI complexes. • During the incubation, HEK293 cells were detached, counted and re-suspended in culture medium (composition specified above). • At the end of the incubation period, the DNA/PEI mixture was added to the cells. • Cells were finally distributed in 96-well plates (White Opaque 96-well/Microplates, Greiner, cat #655083 or CulturPlate-96, White Opaque 96-well Microplate, PerkinElmer, cat #6005688) at a density of 30 000 cells per well.
(§6) At ˜48 hours post-transfection: • Using 450-Select TS Biotek plate washer, culture medium was aspirated and replaced with 100 μl of Hank's Balanced Salt Solution buffer (HBSS) (Wisent, cat #319-067CL: without red phenol; with sodium bicarbonate, with calcium and magnesium, with HEPES) per well. This process was performed a total of two times (i.e., 2 washes). • After the washing step, the HP D300 digital dispenser (Tecan) was used to inject increasing doses (12) of test compounds (ranging from 0-600 nM) to wells. Three to five minutes later, an EC75 of CP-55,940 (0.1 nM for GAPL-Gi2 assay; 100 nM for β-arrestin PM translocation biosensor (+GRK2)) was added to columns 2-12 of each 96-well plate.
(§7) BRET signals were determined by calculating the ratio of light emitted by GFP-acceptor (515 nm) over light emitted by luciferase-donor (400 nm). All BRET ratios were standardized using the equation below with pre-established BRET values for positive and negative controls. The standardized BRET ratio is referred to as universal BRET (uBRET).
(§8) Resulting dose-response curves were fitted using the four-parameter logistic non-linear regression model in GraphPad Prism 9.

human CB1 receptor [2] = target: T1, human CB1 receptor; assay: bioSensAll GAPL-Gi2 BRET biosensor assay (antagonism of CP-55,940); assay type: cell-based; conditions: HEK293 cells transfected with hCB1 and GAPL-Gi2 biosensor, EC75 of CP-55,940 (0.1 nM), overnight incubation, read-out: CB1 wt Gi2 IC50
Protocol: as §1, §2
i) GAPL sensors are used to monitor the activation of heterotrimeric G proteins at the plasma membrane upon receptor stimulation. Specifically, these multimolecular BRET sensors detect the plasma membrane recruitment of proteins that interact with active Ga subunits in a G protein family-selective manner. G protein activation following receptor stimulation generally leads to an increase in the BRET signal.
as §3, §4, §5, §6, §7, §8

| IC50 (human CB1 receptor [1]) [nM] | IC50 (human CB1 receptor [2]) [nM] | Compound |
| --- | --- | --- |
| 109 | 56.2 | CC1(C(N)=O)CCN(c2cc(N3CCC[C@H]3C(=O)O)nc3c(-c4ccc(Cl)cc4)c(-c4ccccc4Cl)nn23)CC1 [Compound 18, (2S)-1-[7-(4-carbamoyl-4-methyl-1-piperidyl)-2-(2-chlorophenyl)-3-(4-chlorophenyl)pyrazolo[1,5-a]pyrimidin-5-yl]pyrrolidine-2-carboxylic acid] |
| > 10000 | 1480 | CC1(C(N)=O)CCN(c2cc(N3CC[C@@H]3CC(=O)O)nc3c(-c4ccc(Cl)cc4)c(-c4ccccc4Cl)nn23)CC1 [Compound 19, 2-[(2R)-1-[7-(4-carbamoyl-4-methyl-1-piperidyl)-2-(2-chlorophenyl)-3-(4-chlorophenyl)pyrazolo[1,5-a]pyrimidin-5-yl]azetidin-2-yl]acetic acid] |
| 22.8 | 5.53 | CN(CC(C)(C)O)c1cc(N2CCC(C)(C(N)=O)CC2)n2nc(-c3ccccc3Cl)c(-c3ccc(Cl)cc3)c2n1 [Compound 20, 1-[2-(2-chlorophenyl)-3-(4-chlorophenyl)-5-[(2-hydroxy-2-methyl-propyl)-methyl-amino]pyrazolo[1,5-a]pyrimidin-7-yl]-4-methyl-piperidine-4-carboxamide] |
| 4.6 | 1.28 | CC1(C(N)=O)CCN(c2cc(N3CC[C@@H](O)C3)nc3c(-c4ccc(Cl)cc4)c(-c4ccccc4Cl)nn23)CC1 [Compound 21, 1-[2-(2-chlorophenyl)-3-(4-chlorophenyl)-5-[(3R)-3-hydroxypyrrolidin-1-yl]pyrazolo[1,5-a]pyrimidin-7-yl]-4-methyl-piperidine-4-carboxamide] |
| 9.15 | 0.99 | CN(CCC(N)=O)c1cc(N2CCC(C)(C(N)=O)CC2)n2nc(-c3ccccc3Cl)c(-c3ccc(Cl)cc3)c2n1 [Compound 22, 1-[5-[(3-amino-3-oxo-propyl)-methyl-amino]-2-(2-chlorophenyl)-3-(4-chlorophenyl)pyrazolo[1,5-a]pyrimidin-7-yl]-4-methyl-piperidine-4-carboxamide] |
| 101 | 25.5 | CN(CCC(N)=O)c1cc(N2CCC[C@@H](C(N)=O)C2)n2nc(-c3ccccc3Cl)c(-c3ccc(Cl)cc3)c2n1 [Compound 23, (3R)-1-[5-[(3-amino-3-oxo-propyl)-methyl-amino]-2-(2-chlorophenyl)-3-(4-chlorophenyl)pyrazolo[1,5-a]pyrimidin-7-yl]piperidine-3-carboxamide] |
| 94.6 | 14.6 | CN(CCC(N)=O)c1cc(N2CC(CC(N)=O)C2)n2nc(-c3ccccc3Cl)c(-c3ccc(Cl)cc3)c2n1 [Compound 24, 3-[[7-[3-(2-amino-2-oxo-ethyl)azetidin-1-yl]-2-(2-chlorophenyl)-3-(4-chlorophenyl)pyrazolo[1,5-a]pyrimidin-5-yl]-methyl-amino]propanamide] |
| 17.5 | 6.47 | CN(C)C(=O)CN(C)c1cc(N2CCC(C)(C(N)=O)CC2)n2nc(-c3ccccc3Cl)c(-c3ccc(Cl)cc3)c2n1 [Compound 25, 1-[2-(2-chlorophenyl)-3-(4-chlorophenyl)-5-[[2-(dimethylamino)-2-oxo-ethyl]-methyl-amino]-pyrazolo[1,5-a]pyrimidin-7-yl]-4-methyl-piperidine-4-carboxamide] |
| 30.5 | 5.03 | CCNC(=O)CN(C)c1cc(N2CCC(C)(C(N)=O)CC2)n2nc(-c3ccccc3Cl)c(-c3ccc(Cl)cc3)c2n1 [Compound 26, 1-[2-(2-chlorophenyl)-3-(4-chlorophenyl)-5-[[2-(ethylamino)-2-oxo-ethyl]-methyl-amino]pyrazolo[1,5-a]pyrimidin-7-yl]-4-methyl-piperidine-4-carboxamide] |
| 4.69 | 1.28 | CC(=O)NC1(C)CCN(c2cc(N(C)CCC(N)=O)nc3c(-c4ccc(Cl)cc4)c(-c4ccccc4Cl)nn23)CC1 [Compound 27, 3-[[7-(4-acetamido-4-methyl-1-piperidyl)-2-(2-chlorophenyl)-3-(4-chlorophenyl)pyrazolo[1,5-a]pyrimidin-5-yl]-methyl-amino]propanamide] |
| 93.9 | 18.9 | CN(CCC(N)=O)c1cc(N2CC[C@H](CC(N)=O)C2)n2nc(-c3ccccc3Cl)c(-c3ccc(Cl)cc3)c2n1 [Compound 28, 3-[[7-[(3R)-3-(2-amino-2-oxo-ethyl)pyrrolidin-1-yl]-2-(2-chlorophenyl)-3-(4-chlorophenyl)pyrazolo[1,5-a]pyrimidin-5-yl]-methyl-amino]propanamide] |
| 114 | 34.8 | CN(C)C(=O)CN(C)c1cc(N2CCC[C@@H](C(N)=O)C2)n2nc(-c3ccccc3Cl)c(-c3ccc(Cl)cc3)c2n1 [Compound 29, (3R)-1-[2-(2-chlorophenyl)-3-(4-chlorophenyl)-5-[[2-(dimethylamino)-2-oxo-ethyl]-methyl-amino]pyrazolo[1,5-a]pyrimidin-7-yl]piperidine-3-carboxamide] |
| 198 | 679 | CN(CP(C)(C)=O)c1cc(N2CC[C@H](CC(N)=O)C2)n2nc(-c3ccccc3Cl)c(-c3ccc(Cl)cc3)c2n1 [Compound 30, 2-[(3R)-1-[2-(2-chlorophenyl)-3-(4-chlorophenyl)-5-[dimethylphosphorylmethyl(methyl)amino]pyrazolo[1,5-a]pyrimidin-7-yl]pyrrolidin-3-yl]acetamide] |
| 418 | 114 | CCNC(=O)CN(C)c1cc(N2CC(CC(N)=O)C2)n2nc(-c3ccccc3Cl)c(-c3ccc(Cl)cc3)c2n1 [Compound 31, 2-[1-[2-(2-chlorophenyl)-3-(4-chlorophenyl)-5-[[2-(ethylamino)-2-oxo-ethyl]-methyl-amino]pyrazolo[1,5-a]pyrimidin-7-yl]azetidin-3-yl]acetamide] |
| > 10000 | 584 | CN(C)C(=O)CN(C)c1cc(N2CC(CC(N)=O)C2)n2nc(-c3ccccc3Cl)c(-c3ccc(Cl)cc3)c2n1 [Compound 32, 2-[1-[2-(2-chlorophenyl)-3-(4-chlorophenyl)-5-[[2-(dimethylamino)-2-oxo-ethyl]-methyl-amino]pyrazolo[1,5-a]pyrimidin-7-yl]azetidin-3-yl]acetamide] |
| 116 | > 10000 | CN(CP(C)(C)=O)c1cc(N2CC(CC(N)=O)C2)n2nc(-c3ccccc3Cl)c(-c3ccc(Cl)cc3)c2n1 [Compound 33, 2-[1-[2-(2-chlorophenyl)-3-(4-chlorophenyl)-5-[dimethylphosphorylmethyl(methyl)amino]pyrazolo[1,5-a]pyrimidin-7-yl]azetidin-3-yl]acetamide] |
| 155 | > 10000 | CN(CP(C)(C)=O)c1cc(N2CCC[C@@H](C(N)=O)C2)n2nc(-c3ccccc3Cl)c(-c3ccc(Cl)cc3)c2n1 [Compound 34, (3R)-1-[2-(2-chlorophenyl)-3-(4-chlorophenyl)-5-[dimethylphosphorylmethyl(methyl)amino]pyrazolo[1,5-a]pyrimidin-7-yl]piperidine-3-carboxamide] |
